Measured values as given in patent US9629828B2, “Methods of treating traveler's diarrhea and hepatic encephalopathy” (priority 2008, dated 2017).
Several values for one entry are separate records, joined by “and”; a condition that tells them apart may be missing. Equal entries are not always repeated.

How the values were obtained:
[1] = human
Experimental: The covariates chosen for the analysis are known indicators of hepatic and renal function. A visual diagnostic was performed to detect potential trends between covariates of interest and AUCτ, Cmax, and CL/F.

[2] = test system: subjects in remission from hepatic encephalopathy (HE); test: First study (3001): time to first breakthrough overt HE episode, rifaximin 550 mg BID vs placebo, 6 months; format: in vivo, human
From the text: Study 3001 was designed to continuously monitor patients to ensure the validity and completeness of HE breakthrough capture. Following screening, subjects entered a treatment period that included weekly visits and/or phone calls with patients and caregivers. Subjects were followed for the protocol specified 168 days. Complete capture of breakthrough events as well as mortality and provided assurance of the validity of the study outcome. Narratives for each subject experiencing HE breakthrough, AE's resulting in termination, SAEs or death were provided in the NDA.
Eligible subjects had 2 episodes of HE associated with chronic liver disease in the previous 6 months.
Patients had MELD scores of either […] (27%) or 11 to 18 (64%) at baseline. No patients were enrolled with a MELD score of >25. Nine percent of the patients were Child-Pugh Class C. Lactulose was concomitantly used by 91% of the patients in each treatment arm of the study. Per the study protocol, patients were withdrawn from the study after experiencing a breakthrough HE episode.
The primary endpoint was the time to first breakthrough overt HE episode. A breakthrough overt HE episode was defined as a marked deterioration in neurological function and an increase of Conn score to Grade ≧2. In patients with a baseline Conn score of 0, a breakthrough overt HE episode was defined as an increase in Conn score of 1 and asterixis grade of 1.
An efficacy endpoint was the time to first breakthrough overt HE episode. A breakthrough overt HE episode was defined as an increase of Conn score to Grade ≧2 (e.g., 0 or 1 to ≧2) or an increase in Conn and asterixis score of 1 grade each for those subjects who entered the study with a Conn score of 0. Time to breakthrough overt HE episode was the duration from time of first dose of study drug to the first breakthrough overt HE episode. […] Subjects who terminated early for reasons other than breakthrough overt HE were contacted at 6 months from randomization to determine if subjects had experienced a breakthrough overt HE episode or other outcome (e.g., mortality status); and, if the subject had no breakthrough overt HE event prior to contact, he/she was censored at the time of contact. […] Subjects in the study had ≧2 episodes of overt HE equivalent to Conn score ≧2 within 6 months prior to screening (i.e., subjects had documented recurrent, overt HE). At the baseline assessment, subjects were in remission with a Conn score of 0 or 1. A breakthrough overt HE episode, as defined above, was a marked deterioration in neurological function.
Presented herein are the results of the first study and second study. […] The primary efficacy endpoint was the time to breakthrough overt HE. Breakthrough overt HE was defined as an increase of Conn score to Grade ≧2 (e.g., 0 or 1 to ≧2) or an increase in Conn and asterixis score of 1 grade each for those subjects who entered the study with a Conn score of 0. Subjects discontinued from the study at the time of breakthrough overt HE episode. After participation in the first study, subjects had the option to enroll in the open-label, treatment-extension study (the second study).
FIG. 1 illustrates Kaplan-Meier estimates of time to first breakthrough overt HE episode by treatment group in the ITT population. Table 18 presents Kaplan-Meier estimates of the proportions of subjects who experienced breakthrough overt HE over the course of the Treatment Period and results of statistical analyses. […] Subjects who terminated early for reasons other than breakthrough overt HE (e.g., liver transplant, AE, subject request) were contacted at 6 months from date of randomization to determine if subjects had experienced a breakthrough overt HE episode or other outcome (e.g., mortality status). Subjects without breakthrough overt HE were censored at the time of contact or death, whichever was earlier.

[3] = test system: subjects in remission from hepatic encephalopathy (HE); test: First study: Conn score (time to any increase, change from baseline); format: in vivo, human; conditions: for Event probability (increase in Conn score during the treatment interval) / Probability of no increase in Conn score: Kaplan-Meier; for Event probability (increase in Conn score during the treatment interval) / Probability of no increase in Conn score / Cumulative number of events (increase in Conn score) / Number of events (increase in Conn score): ITT, N = 140
From the text: The scale used in the Conn scoring system is provided below. • Grade 0=No personality or behavioral abnormality detected • Grade 1=Trivial lack of awareness, euphoria or anxiety; shortened attention span; impairment of addition or subtraction • Grade 2=Lethargy; disorientation for time; obvious personality change; inappropriate behavior • Grade 3=Somnolence to semi-stupor, responsive to stimuli; confused; gross disorientation; bizarre behavior • Grade 4=Coma; unable to test mental state
Change in mental status was measured by the Conn score (also known as the West Haven score). The Conn score has been widely used as a measure of mental state in HE studies and is based on the criteria of Parsons-Smith as modified by Conn. The scale used in the Conn scoring system is described above.
Subjects who discontinued prior to experiencing an increase in Conn score and prior to completion of the 6-month treatment period were censored at the time of discontinuation.

[4] = treatment interval 0 to <28 days
[5] = treatment interval 28 to <56 days
[6] = treatment interval 56 to <84 days
[7] = treatment interval 84 to <140 days
[8] = treatment interval 140 to <168 days

## CO[C@H]1/C=C/O[C@@]2(C)Oc3c(C)c(O)c4c(O)c(c5c(nc6cc(C)ccn65)c4c3C2=O)NC(=O)/C(C)=C\C=C\[C@H](C)[C@H](O)[C@@H](C)[C@@H](O)[C@@H](C)[C@H](OC(C)=O)[C@@H]1C [rifaximin, (2S,16Z,18E,20S,21S,22R,23R,24R,25 S,26S,27S,28E)-5,6,21,23,25-pentahydroxy-27-methoxy-2,4,11,16,20,22,24,26-octamethyl-2,7-(epoxypentadeca-[1,11,13]trienimino)benzofuro[4,5-e]pyrido[1,2-á]-benzimidazole-1,15(2H)-dione,25-acetate]
[1]
  Regression estimate for AUCτ: Albumin: −0.0573
  Regression estimate for AUCτ: INR: −1.7432
  Regression estimate for AUCτ: Intercept: 8.4175
  Regression estimate for AUCτ: Total Bilirubin: 0.0173
  Regression estimate for CL/F: ALT: −0.0028
  Regression estimate for CL/F: Albumin: 0.0783
  Regression estimate for CL/F: INR: 2.5949
  Regression estimate for CL/F: Intercept: −0.8934
  Regression estimate for CL/F: Total Bilirubin: −0.0185
  Regression estimate for Cmax: ALT: 0.0031
  Regression estimate for Cmax: Albumin: −0.0515
  Regression estimate for Cmax: INR: −2.0654
  Regression estimate for Cmax: Intercept: 6.5350
  Regression estimate for Cmax: Total Bilirubin: 0.0207
[2]; 550 mg BID
  reduction in risk of breakthrough overt HE vs placebo, adjusted for prognostic factors: 60%
[2]; 550 mg BID, 6-month treatment
  reduction in risk of breakthrough overt HE vs placebo: 58% and 57.9%
[2]; 550 mg BID, 6 months
  subjects with breakthrough overt HE episodes: 22%
[2]; 550 mg BID, up to Day 170
  subjects with breakthrough overt HE episodes: 31 of 140
[2]; N = 140; days: r10 [0-28), r11 [28-56), r12 [56-84), r13 [84-140), r14 [140-168), r15 >=168
  Survival: 1.0000 and 0.9071 and 0.8783 and 0.8344 and 0.7820 and 0.7740
[2]; North America versus Russia
  time to first breakthrough overt HE by region: highly significant protective effect
[2]; by Baseline MELD Score Level, N = 11, days r10-r15 as E1301
  Survival: 1.0000 and 0.9091 and 0.6364
[2]; by Baseline MELD Score Level, N = 85, days r10-r15 as E1201
  Survival: 1.0000 and 0.9059 and 0.8822 and 0.8459 and 0.7713 and 0.7580
[2]; by Prior Lactulose Use, N = 123, days r10-r15 as E801
  Survival: 1.0000 and 0.9024 and 0.8696 and 0.8278 and 0.7678 and 0.7586
[2]; by Prior Lactulose Use, N = 127, days r11-r21 as E1401
  Survival: 1.0000 and 0.9055 and 0.8737 and 0.8252 and 0.7754 and 0.7666
[2]; component of breakthrough HE
  patients experiencing a Conn Score of >=2: 20%
  patients with worsening of Conn and asterixis grade of 1 each: 2%
[2]; first study rifaximin group
  rate of breakthrough HE episodes adjusted for exposure: 0.62 events/PEY
[2]; in vivo
  patients with zero events over 6 months: 78%
  time to breakthrough HE events vs placebo (FIG. 2): increased time to breakthrough HE events
[3]; [4]
  Event probability (increase in Conn score during the treatment interval): 0.012
  Probability of no increase in Conn score: 1.0000
  Cumulative number of events (increase in Conn score): 17
  Number of events (increase in Conn score): 17
[3]; [5]
  Event probability (increase in Conn score during the treatment interval): 0.04
  Probability of no increase in Conn score: 0.8777
  Cumulative number of events (increase in Conn score): 22
  Number of events (increase in Conn score): 5
[3]; [6]
  Event probability (increase in Conn score during the treatment interval): 0.08
  Probability of no increase in Conn score: 0.8407
  Cumulative number of events (increase in Conn score): 31
  Number of events (increase in Conn score): 9
[3]; [7]
  Event probability (increase in Conn score during the treatment interval): 0.05
  Probability of no increase in Conn score: 0.7713
  Cumulative number of events (increase in Conn score): 36
  Number of events (increase in Conn score): 5
[3]; [8]
  Event probability (increase in Conn score during the treatment interval): 0
  Probability of no increase in Conn score: 0.7302
  Cumulative number of events (increase in Conn score): 36
  Number of events (increase in Conn score): 0
[3]; treatment interval ≧168 days
  Event probability (increase in Conn score during the treatment interval): 0.03
  Probability of no increase in Conn score: 0.7302
  Cumulative number of events (increase in Conn score): 37
  Number of events (increase in Conn score): 1
[3]; any increase in Conn score, days r10-r15 as E1001
  Survival: 1.0000 and 0.8777 and 0.8407 and 0.7713 and 0.7302
[3]; baseline to end of treatment
  subjects with Conn score changes of −1 or no change: 77.1%
[3]; in vivo
  prevention of worsening of Conn score, times versus placebo: 2.46 times
  reduction in risk of first worsening in Conn Score: 54%
  subjects with increases in Conn score: 37 of 140
  time to first increase in Conn scores vs placebo (FIG. 4): increased time to the first increase in Conn scores
